# Measured values: US20250051277A1, “DELIVERY OF THERAPEUTIC ALKALOID COMPOUNDS” (Sensorium Therapeutics, Inc., priority 2021, published 2025)
# Read-outs that look alike come from different tables or passages of the source. Marks after values point to notes of the source that are not given here.
# Key:
# [1] = format: physicochemical; conditions: SGF with pepsin, pH 1.5, 37° C., 0.5 mM
# [2] = format: physicochemical; conditions: DI water, 25° C., 0.5 mM
SMILES,Condition 1 Conversion (%) ([1]; time 1 min),Condition 1 Conversion (%) ([1]; time 5 min),Condition 1 Conversion (%) ([1]; time 30 min),Condition 1 Conversion (%) ([1]; time 1 h),Condition 1 Conversion (%) ([1]; time 4 h),Condition 1 Conversion (%) ([1]; time 24 h),Condition 2 Conversion (%) ([2]; time 1 min),Condition 2 Conversion (%) ([2]; time 5 min),Condition 2 Conversion (%) ([2]; time 30 min),Condition 2 Conversion (%) ([2]; time 1 h),Condition 2 Conversion (%) ([2]; time 4 h),Condition 2 Conversion (%) ([2]; time 24 h)
"COc1ccc([C@]23CCN(C)[C@H]2CC(OC)(OC)CC3)cc1OC (stereo in doubt) [Compound 190, 3a-(3,4-dimethoxyphenyl)-6,6-dimethoxy-1-methyl-2,3,4,5,7,7a-hexahydroindole]",0%,8.30%,82.97%,100%,100%,100%,0%,0%,0%,0%,0%,0%
"COc1ccc(C23CCC(=NNC(=O)Nc4ccccc4)C[C@@H]2N(C)CC3)cc1OC (stereo in doubt) [Compound 198, 1-[[(3aR)-3a-(3,4-dimethoxyphenyl)-1-methyl-2,3,4,5,7,7a-hexahydroindol-6-ylidene]amino]-3-phenyl-urea]",0.86%,1%,1%,1%,1%,1%,0.2%,0.21%,0.22%,0.55%,0.89%,0.8%
"COc1ccc([C@]23CCN(C)[C@H]2CC2(CC3)OCC(c3ccc([N+](=O)[O-])cc3)O2)cc1OC (stereo partly drawn) [Compound 114, (3a'S,7a'S)-3a′-(3,4-dimethoxyphenyl)-1′-methyl-4-(4-nitrophenyl)octahydrospiro[[1,3]dioxolane-2,6′-indole]]",0%,0%,0%,0%,0%,0%,–,–,–,–,–,–
"COc1ccc([C@@]23CCC(=NNC(=O)c4ccncc4)C[C@@H]2N(C)CC3)cc1OC [Compound 157, N-[[(3aS,7aS)-3a-(3,4-dimethoxyphenyl)-1-methyl-2,3,4,5,7,7a-hexahydroindol-6-ylidene]amino]pyridine-4-carboxamide]",100%,100%,100%,100%,100%,100%,–,–,–,–,–,–
"COc1ccc([C@@]23CCC(=NNC(=O)CC[C@H](NC(=O)c4ccc(NCc5cnc6nc(N)nc(O)c6n5)cc4)C(=O)O)C[C@@H]2N(C)CC3)cc1OC [Compound 172, (2S)-5-[2-[(3aS,7aS)-3a-(3,4-dimethoxyphenyl)-1-methyl-2,3,4,5,7,7a-hexahydroindol-6-ylidene]hydrazino]-2-[[4-[(2-amino-4-hydroxy-pteridin-6-yl)methylamino]benzoyl]amino]-5-oxo-pentanoic acid]",100%,100%,100%,100%,100%,100%,50* %,70* %,100%,100%,100%,100%
"COc1ccc([C@]23CCN(C)[C@H]2CC2(CC3)OC[C@H]([C@@H](O)[C@@H](O)Cn3c4nc(=O)[nH]c(=O)c-4nc4cc(C)c(C)cc43)O2)cc1OC (stereo partly drawn) [Compound 174, 10-[(2S,3S)-3-[(3′aS,4R)-3′a-(3,4-dimethoxyphenyl)-1′-methyl-spiro[1,3-dioxolane-2,6′-2,3,4,5,7,7a-hexahydroindole]-4-yl]-2,3-dihydroxy-propyl]-7,8-dimethyl-benzo[g]pteridine-2,4-dione]",0%,0%,0%,0%,0%,0%,–,–,–,–,–,–
"COc1ccc([C@]23CCN(C)[C@H]2CC2(CC3)O[C@@H]([C@@H](O)Cn3c4nc(=O)[nH]c(=O)c-4nc4cc(C)c(C)cc43)[C@@H](CO)O2)cc1OC (stereo partly drawn) [Compound 196, 10-[(2S)-2-[(3′aS,4S,5R)-3′a-(3,4-dimethoxyphenyl)-5-(hydroxymethyl)-1′-methyl-spiro[1,3-dioxolane-2,6′-2,3,4,5,7,7a-hexahydroindole]-4-yl]-2-hydroxy-ethyl]-7,8-dimethyl-benzo[g]pteridine-2,4-dione]",0%,0%,0%,0%,0%,0%,–,–,–,–,–,–
"COc1ccc([C@@]23CCC(=NOC(C)(C)C)C[C@@H]2N(C)CC3)cc1OC [Compound 199, (3aS)-N-tert-butoxy-3a-(3,4-dimethoxyphenyl)-1-methyl-2,3,4,5,7,7a-hexahydroindol-6-imine]",0%,0%,0%,4.2%,23.6%,27.3%,0%,0%,0%,0%,0%,0%
"CCON=C1CC[C@@]2(c3ccc(OC)c(OC)c3)CCN(C)[C@H]2C1 [Compound 200, (3aS,7aS)-3a-(3,4-dimethoxyphenyl)-N-ethoxy-1-methyl-2,3,4,5,7,7a-hexahydroindol-6-imine]",0%,0%,0%,2.1%,27.7%,34.1%,0%,0%,0%,0%,0%,0%
"COc1ccc([C@@]23CCC(=NOCC(=O)O)C[C@@H]2N(C)CC3)cc1OC [Compound 201, 2-[[(3aS,7aS)-3a-(3,4-dimethoxyphenyl)-1-methyl-2,3,4,5,7,7a-hexahydroindol-6-ylidene]amino]oxyacetic acid]",0%,0%,0%,0%,7.1%,14.7%,0%,0%,0%,0%,0%,0%
"CCCC1CO[C@]2(CC[C@@]3(c4ccc(OC)c(OC)c4)CCN(C)C3C2)O1 (stereo partly drawn) [Compound 212, (2R,3′aS)-3′a-(3,4-dimethoxyphenyl)-1′-methyl-4-propyl-spiro[1,3-dioxolane-2,6′-2,3,4,5,7,7a-hexahydroindole]]",0%,0%,0%,0%,0%,0%,–,–,–,–,–,–
"CCCC1CO[C@@]2(CC[C@@]3(c4ccc(OC)c(OC)c4)CCN(C)C3C2)O1 (stereo partly drawn) [Compound 238, (2S,3′aS)-3′a-(3,4-dimethoxyphenyl)-1′-methyl-4-propyl-spiro[1,3-dioxolane-2,6′-2,3,4,5,7,7a-hexahydroindole]]",0%,0%,0%,0%,0%,0%,–,–,–,–,–,–
